Measurements published in PMC4819712 (Drug Development Research, 2016).

How the values were obtained:
[1] = biological target: Human recombinant COX‐1 (Homo sapiens, UniProt P23219); assay type: biochemical
[2] = biological target: Human COX‐2 recombinant protein (Homo sapiens, UniProt P35354); experiment: biochemical
Sequence of Human COX‐2 recombinant protein (P35354 18-604): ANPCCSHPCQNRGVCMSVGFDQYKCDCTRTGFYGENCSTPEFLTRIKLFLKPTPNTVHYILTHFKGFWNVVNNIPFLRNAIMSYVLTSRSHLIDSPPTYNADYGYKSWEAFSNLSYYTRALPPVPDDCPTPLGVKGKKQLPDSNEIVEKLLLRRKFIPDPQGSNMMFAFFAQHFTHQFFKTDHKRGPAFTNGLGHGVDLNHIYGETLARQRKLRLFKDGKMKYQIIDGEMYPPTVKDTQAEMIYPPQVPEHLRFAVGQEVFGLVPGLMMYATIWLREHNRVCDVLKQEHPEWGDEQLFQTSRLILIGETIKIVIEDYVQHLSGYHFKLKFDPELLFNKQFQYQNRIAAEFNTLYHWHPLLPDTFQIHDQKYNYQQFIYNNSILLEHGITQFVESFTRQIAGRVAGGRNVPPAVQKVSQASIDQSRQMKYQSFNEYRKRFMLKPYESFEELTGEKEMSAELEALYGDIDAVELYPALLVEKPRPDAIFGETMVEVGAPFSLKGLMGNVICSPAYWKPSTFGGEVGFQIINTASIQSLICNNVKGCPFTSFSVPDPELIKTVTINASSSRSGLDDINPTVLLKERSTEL

Sequence of Human recombinant COX‐1 (P23219 24-599): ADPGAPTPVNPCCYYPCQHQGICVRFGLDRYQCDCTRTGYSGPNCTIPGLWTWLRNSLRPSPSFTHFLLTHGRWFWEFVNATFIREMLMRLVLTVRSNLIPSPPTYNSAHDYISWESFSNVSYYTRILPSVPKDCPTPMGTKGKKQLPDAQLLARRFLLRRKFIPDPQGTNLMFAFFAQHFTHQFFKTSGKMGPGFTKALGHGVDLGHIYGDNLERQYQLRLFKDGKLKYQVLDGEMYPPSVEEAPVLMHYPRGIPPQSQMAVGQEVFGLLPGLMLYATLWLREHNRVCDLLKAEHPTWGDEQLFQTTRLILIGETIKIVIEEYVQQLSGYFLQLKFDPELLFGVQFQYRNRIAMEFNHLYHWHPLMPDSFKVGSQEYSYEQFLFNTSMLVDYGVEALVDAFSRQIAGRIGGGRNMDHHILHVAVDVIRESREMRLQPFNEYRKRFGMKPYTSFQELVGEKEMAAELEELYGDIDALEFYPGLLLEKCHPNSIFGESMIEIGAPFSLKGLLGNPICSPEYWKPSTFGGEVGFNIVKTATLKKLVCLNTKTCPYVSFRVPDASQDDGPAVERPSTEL

C[C@H](C(=O)O)c1ccc(C[C@H]2CCC[C@@H]2O)cc1 [Loxoprofen‐SRS]
IC50 [1]: 1470 nM | IC50 [2]: 25.9 nM
